For this assay, the target named is T1, recombinant human PDE5 (Homo sapiens, UniProt O76074).
T1 construct: host or cells: Saccharomyces cerevisiae strain BJ2-54 (ATCC 74465)
In words: PDE5 inhibition, cGMP-PDE one-step assay. The format is biochemical. Particulars: in vitro.

Each structure is given as a SMILES string. Structures can show the parent of a compound that is named as a salt.

For 2 molecules, IC50 results are on record in patent US6960587B2, “Condensed pyrazindione derivatives as PDE inhibitors” (Lilly Icos LLC, priority 2000, dated 2005).

For orientation: IC50 means the concentration needed to halve the response being measured. Take `COc1cc2c(cc1OC)[C@@H](c1ccc3c(c1)OCO3)N1C(=O)CN(C)C(=O)[C@@H]1C2` [Example 10]: the IC50 stood at 0.718 µM.

With `CN1CC(=O)N2[C@H](c3ccc4c(c3)OCO4)c3[nH]cnc3C[C@@H]2C1=O` (racemic) [Example 1, (+−, cis)-4-Benzo[1,3]dioxol-5-yl-7-methyl-3,4,6,7,8a,9-hexahydro-1,3,4a,7-tetraaza-cyclopenta[b]naphthalene-5,8-dione hydrochloride], the IC50 worked out at 3.24 µM.
